One data set concerns Shigella flexneri. As to conditions: cited from earlier work.
For data set [1], the system named is Enterobacter aerogenes. The experiment in a line: in vitro MIC assay. The class given is cell-based. As to conditions: Klebsiella aerogenes, activity = MIC<128 μg/ml. Here is the method: (§1) The ability of negamycin or deoxynegamycin, or pharmaceutically acceptable salts, prodrugs or isomers thereof, to treat bacterial infection was measured by in vitro assay described below. The compounds were kept in DMSO at 10 mg/ml and diluted into the test medium for the assay.
(§2) The strains used for assaying negamycin include the following: Acinetobacter baumanii, Citrobacter freundii, Enterobacter aerogenes, Haemophilus influenzae, Moraxella catarrhalis, Staphylococcus aureus MRSA, Staphylococcus aureus GISA, Staphylococcus epidermis, Streptococcus pneumoniae PenR, Streptococcus pneumoniae PenS, Streptococcus pyogenes, Helicobacter pylori and E. faecium. The strains used for assaying deoxynegamycin include the following: Haemophilus influenzae, Staphylococcus aureus MRSA, Staphylococcus aureus GISA, Staphylococcus epidermis, Streptococcus pneumoniae PenR, Streptococcus pneumoniae PenS, Streptococcus pyogenes and E. facium.
(§3) (1) Liquid Medium, Nutrient Broth and Mueller-Hinton Broth with 50% Human Serum
(§4) Compounds were suspended in a DMSO solution containing 10 mg/ml of compound. The appropriate amount of compound was added to a well of the first column of a 96-well microtiter plate containing 100 μl of Nutrient Broth (NB) or Mueller-Hinton Broth with 50% human serum (MHB+HS), for S. pneumoniae the NB medium was supplemented with 3 or 5% lysed horse blood. The rest of the wells in the row had 50 μl of the same medium in each well. After adding the compound to the first well and mixing thoroughly, 50 μl was taken out, and mixed to the second well of the row. This operation was repeated until the well of column 11 was reached and, after mixing, 50 μl were discarded. […] A concentration gradient of two-fold dilution was achieved by this method. A distinct compound was added to the first column well of the next row of the microtiter plate, and the procedure was repeated until all the rows are used. The plate was then ready for inoculation.
(§5) Bacterial strains were inoculated from a frozen stock on Mueller-Hinton Agar (Difco) or Blood Agar for S. pneumoniae and grown at 35° C. overnight. Cells were suspended in sterile saline to 0.5 McFarland standard. The inoculum was diluted approximately 1:1000 in the appropriate medium to reach an inoculum size of 10^5 cfu/ml (NB, NB supplemented with 3 or 5% lysed horse blood for S. pneumoniae, or MHB+HS). The diluted cell suspension was used to inoculate the microtiter plate containing two-fold dilution of the test compound. Each well of the microtiter plate received 50 μl of the cell suspension. The final volume was 100 μl (50 μl from the inoculum and 50 μl of the medium containing the compound).
(§6) The plates were incubated at 35° C. for 16 to 20 hours, the minimal inhibitory concentration (MIC) was recorded and was defined as the lowest concentration of compound that there is no visible growth.
(§7) (2) Solid Medium, Mueller-Hinton Agar with 50% Human Serum
(§8) Compounds were suspended in a DMSO solution containing 10 mg/ml of compound. The appropriate amount of compound was added to melted Mueller-Hinton Agar with 50% human serum (MHA+HS) at 50° C. The medium has been prepared by adding human serum to a melted Mueller-Hinton Agar (MHA) at two fold the concentration. MHA+HS has 50% human serum and normal strength of MHA. The appropriate concentration of compound was added to 4 ml of melted MHA+HS, and poured in a 6 cm diameter petri dish, and the agar was allowed to solidify at room temperature. A set of petri dishes, each dish containing half the concentration of compound of the previously poured dish, was made and used to assess the MIC in solid medium.
(§9) Bacterial strains were inoculated from a frozen stock on Mueller-Hinton Agar (Difco) or Blood Agar for S. pneumoniae and grown at 35° C. overnight. Cells are suspended in sterile saline to 0.5 McFarland standard. The inoculum was diluted approximately 1:10 in sterile saline water to obtain a bacterial suspension at 10^7 cfu/ml. […]

The subject of data set [2] is Streptococcus pneumoniae PenS. The experiment in a line: in vitro MIC assay. The class given is cell-based. As to conditions: activity = MIC<128 μg/ml. Here is the method:
as §1, §2, §3, §4, §5, §6, §7, §8, §9

The subject of data set [3] is Streptococcus pneumoniae PenR. Put plainly: in vitro MIC assay. The class given is cell-based. As to conditions: activity = MIC<128 μg/ml. Here is the method:
as §1, §2, §3, §4, §5, §6, §7, §8, §9

A further data set relates to Moraxella catarrhalis. The experiment in a line: in vitro MIC assay. The class given is cell-based. As to conditions: activity = MIC<128 μg/ml. The protocol:
as §1, §2, §3, §4, §5, §6, §7, §8, §9

The subject of data set [4] is Staphylococcus aureus MRSA. Put plainly: in vitro MIC assay. It is filed as cell-based. As to conditions: activity = MIC<128 μg/ml. Here is the method:
as §1, §2, §3, §4, §5, §6, §7, §8, §9

The subject of a further data set is Citrobacter freundii. Put plainly: in vitro MIC assay. It is filed as cell-based. As to conditions: activity = MIC<128 μg/ml. The protocol:
as §1, §2, §3, §4, §5, §6, §7, §8, §9

The next data set relates to E. faecium. Put plainly: in vitro MIC assay. As to conditions: activity = MIC<128 μg/ml. It is filed as cell-based. Here is the method: as §1, §2, §3, §4, §5, §6, §7, §8, §9
Another data set deals with Acinetobacter baumanii. The experiment in a line: in vitro MIC assay. It is filed as cell-based. As to conditions: Acinetobacter baumannii, activity = MIC<128 μg/ml. The protocol:
as §1, §2, §3, §4, §5, §6, §7, §8, §9

In data set [5] the test system is Staphylococcus aureus GISA. The experiment in a line: in vitro MIC assay. The class given is cell-based. As to conditions: activity = MIC<128 μg/ml. The protocol: as §1, §2, §3, §4, §5, §6, §7, §8, §9
The next data set has as its system Staphylococcus epidermis. Put plainly: in vitro MIC assay. The class given is cell-based. As to conditions: activity = MIC<128 μg/ml. Here is the method: as §1, §2, §3, §4, §5, §6, §7, §8, §9
In a further data set the test system is Haemophilus influenzae. The experiment in a line: in vitro MIC assay. As to conditions: activity = MIC<128 μg/ml. It is filed as cell-based. Here is the method:
as §1, §2, §3, §4, §5, §6, §7, §8, §9

Another data set concerns Helicobacter pylori. Put plainly: in vitro MIC assay. The class given is cell-based. As to conditions: activity = MIC<128 μg/ml. Here is the method: as §1, §2, §3, §4, §5, §6, §7, §8, §9
For the next data set, the system named is Streptococcus pyogenes. The experiment in a line: in vitro MIC assay. It is filed as cell-based. As to conditions: activity = MIC<128 μg/ml. Here is the method:
as §1, §2, §3, §4, §5, §6, §7, §8, §9

For the next data set, the system named is Proteus rettgeri. As to conditions: cited from earlier work.
The subject of the next data set is Salmonella enteriditis. As to conditions: cited from earlier work.
A further data set concerns Mycobacterium smegmatis. As to conditions: cited from earlier work.
The test system of a further data set is Shigella sonnei. As to conditions: cited from earlier work.
The next data set has as its system Staphylococcus aureus. As to conditions: cited from earlier work.
The subject of the next data set is Salmonella typhimurium. As to conditions: cited from earlier work.
The next data set deals with Enterobacter sp. As to conditions: cited from earlier work.
For a further data set, the system named is Herellea vaginicola. As to conditions: cited from earlier work.
The next data set has as its system Pseudomonas aeruginosa. As to conditions: cited from earlier work.
The next data set concerns Serratia marcescens. As to conditions: cited from earlier work.
Data set [6] deals with Escherichia coli ATCC 25922. The experiment in a line: mouse septicemia model. As to conditions: mortality recorded for 7 days, E. coli ATCC 25922 mouse septicemia. It is filed as in vivo, ICR male mice. The protocol:
(§10) Mice were inoculated intraperitoneally with 2×10^5 cfu/mouse in 0.5 ml of Brain-Heart Infusion broth supplemented with 5% mucin. The compound was tested at 40, 20, 10, 5 and 2.5 mg/kg orally (PO) or at 20, 10, 5 and 2.5 mg/kg intravenously (IV) at 1 and 5 hours after bacterial inoculation. Controls included vehicle control (0.9% NaCl, 10 ml/kg) and an antibiotic control with ampicillin. Mortality was recorded for 7 days, and an ED50 was determined by non-linear regression.

Another data set has as its system Klebsiella pneumoniae. As to conditions: cited from earlier work.
The conditions of data set [7]: kept at 37° C. for one month, cited from earlier work.
A further data set concerns Pseudomonas fluorescens. As to conditions: cited from earlier work.
Another data set deals with S. Aureus. Put plainly: ED50 against S. Aureus. The class given is in vivo. As to conditions: Staphylococcus aureus, route not stated. The protocol:
as §10

The next data set relates to Escherichia coli. As to conditions: cited from earlier work.
For another data set, the system named is Salmonella typhosa. As to conditions: cited from earlier work.
Another data set has as its system Proteus vulgaris. As to conditions: cited from earlier work.
The subject of a further data set is Salmonella typhi. As to conditions: cited from earlier work.
Another data set has as its system Candida albicans. As to conditions: cited from earlier work.
The subject of data set [8] is Trichophyton mentagraphytes. As to conditions: cited from earlier work.
For the next data set, the system named is Trichophyton tonsurans. As to conditions: cited from earlier work.
The test system of another data set is Proteius mirabilis. As to conditions: cited from earlier work.
Data set [9] has as its system Enterobacter aerogenes. As to conditions: cited from earlier work.
The next data set relates to Cryptococcus neoformans. As to conditions: cited from earlier work.
Setting [10] is: ATCC25922, intravenously (IV) at 1 and 5 hours after inoculation.
The mark [11] stands for this setting: ATCC25922, orally (PO) at 1 and 5 hours after inoculation.

Molecules are shown by their SMILES. Like-named read-outs stand apart in the source and are kept apart here. Some results are limits rather than exact numbers.

What is called ED50 is the midpoint of the dose-response relation.

With `CN(CC(=O)O)NC(=O)C[C@H](N)C[C@@H](O)CN` [Negamycin, [2-{(3R,5R)-3,6-diamino-5-hydroxyhexanoyl}-1-methylhydrazino]acetic acid], the “reported as effective against organism” value in the data set with Shigella flexneri, in the data set on Proteus rettgeri, in the data set with Salmonella enteriditis, in the data set on Mycobacterium smegmatis, with Shigella sonnei and with Staphylococcus aureus was “effective” throughout. The “reported as effective against organism” value with Salmonella typhimurium, in the data set on Enterobacter sp., in the data set with Herellea vaginicola, with Pseudomonas aeruginosa, in the data set with Serratia marcescens and with Klebsiella pneumoniae was “effective” throughout. The “reported as effective against organism” value in the data set with Pseudomonas fluorescens, in the data set on Escherichia coli, with Salmonella typhosa, with Proteus vulgaris and in the data set on Salmonella typhi was “effective” in each case. In addition, the MIC (against Enterobacter aerogenes [1]; in data set [2] (read-out: MIC); in data set [3] (read-out: MIC); with Moraxella catarrhalis; in data set [4] (read-out: MIC); with Citrobacter freundii) was less than 128 µg/mL each time. Moreover, the MIC result in the data set on E. faecium is “inactive”; against Acinetobacter baumanii, less than 128 µg/mL; in [5] (read-out: MIC), less than 128 µg/mL; in the data set with Staphylococcus epidermis (read-out: MIC), less than 128 µg/mL; in the data set with Haemophilus influenzae (read-out: MIC) it was less than 128 µg/mL; against Helicobacter pylori, less than 128 µg/mL. In the data set with Streptococcus pyogenes (read-out: MIC), the MIC is less than 128 µg/mL. In addition, the ED50 was 4.1 mg/kg in [6] (setting [10]), 15.1 mg/kg in [6] (setting [11]) and 16.8 mg/kg in the data set with S. Aureus. Also, the “activity reduced to” value was 50% in data set [7] (in 0.02N HCl aqueous solution) and 63% in data set [7] (in aqueous solution).

For the compound `CC1(C)S[C@@H]2[C@H](NC(=O)[C@H](N)c3ccccc3)C(=O)N2[C@H]1C(=O)O` [Ampicillin, reference compound], the figures for the ED50 in [6] (setting [10]) and in data set [6] (setting [11]) were 6.8 mg/kg and 27.6 mg/kg, respectively.

Consider `CN(CC(=O)O)NC(=O)C[C@H](N)CCCN` [Deoxynegamycin, D-3,6-diaminiohexanoic acid-2-(carboxymethyl)-2-methylhyrazide], for which the “reported as effective against organism” value in the data set with Candida albicans, with Shigella flexneri, in the data set with Proteus rettgeri, in the data set on Salmonella enteriditis, in the data set with Mycobacterium smegmatis and in the data set with Staphylococcus aureus was “effective” throughout. Also, the “reported as effective against organism” value (in data set [8]; with Salmonella typhimurium; with Enterobacter sp.; in the data set with Herellea vaginicola; in the data set with Pseudomonas aeruginosa; with Serratia marcescens) was “effective” throughout. For the same compound, the “reported as effective against organism” value with Klebsiella pneumoniae, with Trichophyton tonsurans, in the data set with Pseudomonas fluorescens, in the data set on Proteius mirabilis, in the data set on Escherichia coli and in the data set with Enterobacter aerogenes [9] was “effective” throughout. The “reported as effective against organism” value with Proteus vulgaris, in the data set on Cryptococcus neoformans and in the data set on Salmonella typhi was “effective” in each case. Besides, the MIC result was “exhibited activity” in [2]; “exhibited activity” in data set [3]; “exhibited activity” in [4]; “inactive” in the data set with E. faecium; “exhibited activity” in data set [5]; “exhibited activity” against Staphylococcus epidermis. The MIC entry in the data set on Haemophilus influenzae and with Streptococcus pyogenes was “exhibited activity” in each case. Besides, in data set [6] (setting [10]), the 50% effect level (ED50) was put at a dose of 4.8 mg/kg.
